In patent publication US6682718B1, “Remedies for periodontosis” (Yamanouchi Pharmaceutical Co., Ltd., priority 1999, dated 2004):
Entries after “also recorded” stand apart in the source; their conditions may differ. Like-named read-outs stand apart in the source and are kept apart here.

Key:
[1] = system: dog periodontitis model; conditions: oral administration; cited from earlier work
[2] = system: monkey periodontitis model; conditions: oral administration; cited from earlier work
[3] = system: tooth movement model (tooth relapse); assay: Tooth movement model in rat, intra-gingival administration
[4] = system: canine periodontitis model; conditions: oral administration; cited from earlier work
[5] = system: lamina propria mucosae of the administered sites; assay: Local irritation to the lamina propria mucosae of the administered sites (Comparative Example 1); type: in vivo, beagle dog
Procedure: (§1) Using 26 animals of beagle dog (3 to 6 years, body weight at the time of grouping 6.1 to 12.9 kg), topical administration study in a canine periodontitis model were carried out on a), control group: physiological saline, b) incadronate […] group and c) incadronate 150 μg/site group.

[6] = system: hamster periodontitis model; conditions: subcutaneous administration; cited from earlier work
[7] = Alveolar bone drug concentration after oral administration in canine periodontitis model; type: in vivo; conditions: dog, oral 1.0 mg/kg, at completion of 26 weeks administration
Procedure: Thereafter, it was confirmed that the drug concentration in the alveolar bone is about 4 μg/g in that case.
Intra-alveolar bone concentration of incadronate was 5.67 and 4.28 μg/g bone. This was similar to the intra-alveolar bone drug concentration of about 4 μg/g at the time of the completion of 26 weeks oral administration of 1.0 mg/kg of incadronate (J. Periodont. Res., 33, 196-204 (1998)).

[8] = Intra-alveolar bone drug concentration, high dose topical study (Comparative Example 1); type: in vivo; conditions: beagle, dog, read-out: Intra-alveolar bone concentration of incadronate
Procedure: as §1

[9] = Intra-alveolar bone and intra-rib drug concentration, canine periodontitis model (Example 1); conditions: for Intra-rib drug concentration: 13 weeks after final administration; for concentration at 13 weeks after final administration: female, beagle, dog, other: alveolar mucosa injection
Text: A total of 30 animals of female beagle dogs (1 to 2 years, body weight at the time of grouping 7.9 to 13.7 kg) were fed with a soft diet prepared by impregnating Gains Packen (AGF) with water from the previous day of ligation and used in this study. Under anesthesia with xylazine hydrochloride (Bayer) and pentobarbital, gingiva between second premolar (hereinafter, P2)/third premolar (hereinafter, P3), between P3/fourth premolar (hereinafter, P4) and between P4/first molar (hereinafter, M1) of right and left mandibles were incised with a surgical knife, and periodontal pockets were prepared around P3 and P4 using a periosteal elevator. An experimental periodontitis was induced by placing double-ligation of silk threads (surgical thread; Nescosuture (3-0), Morita) around the cervices of P3 and P4. In this case, reference points were prepared on the buccal side and lingual side of the crown of P4 at the height of gingival margin using dental drill. […] 1) Control group: physiological saline, 2) incadronate […] group, 3) incadronate 1.5 μg/site group, 4) incadronate 5.0 μg/site group and 5) incadronate 15 μg/site group.
The administration was started just after the surgical operation in each group. Incadronate (an injection, mfd. by Yamanouchi Pharmaceutical Co., Ltd.) was prepared and diluted with saline such that the administration liquid volume became 150 μl/site. The administration was carried out a total of three times, namely just after the ligation and 1 and 2 weeks after the ligation. The administration was carried out by the alveolar mucosa injection method using a 27 G injection needle attached to a glass micro-syringe. The injection needle was inserted horizontally to the alveolar mucosa close to the boundary between the alveolar mucosa and gingiva (muco-gingival junction) around the ligated tooth, and 150 μl of a drug solution was injected between periosteum of the alveolar bone and alveolar mucosa. The administration was carried out on both of the buccal and lingual side (a total of 4 sites per 1 mandible, 600 μl in total). Each animal was sacrificed by exsanguination 13 weeks after the final administration, and the mandibles including P3 and P4 of right and left side and the ribs were harvested and submitted to the intra-bone drug concentration measurement.
Root of the left fourth premolar was extracted using cutting pliers, the whole mandible containing jaw bone and alveolar bone was divided up and down into two, and the upper ½ was considered as the alveolar bone. […] Incadronate was extracted from these samples using a calcium precipitation method and its intra-bone drug concentration was measured by an HPLC method.

[10] = Alveolar bone drug concentration in rat tooth movement model; type: in vivo; conditions: 10 μg/50 μl/kg group
[11] = system: experimental periodontitis induced by silk thread ligation of P3 and P4; assay: Canine periodontitis model study, topical alveolar mucosa injection (Example 1): alveolar bone loss and clinical scores; type: in vivo, beagle dogs
Text: The standardized X-ray photographing method (J. Periodontol., 33, 164-171 (1962)) was employed, in which irradiation direction of X-ray to a subject and position of the film are always kept constant so that X-ray photographs of the same region of the same individual can be obtained repeatedly always under the same conditions. This time, in order to evaluate alveolar bone loss around P3 and P4 of right and left mandibles, a cap was formed between incisor tooth and M1 of both mandibles using an acrylic resin, and a fixing device was prepared by combining this cap with a film holder.
Each animal was anesthetized with xylazine hydrochloride and ketamine hydrochloride (Ketalar, Sankyo), and a dental film (Ultra Speed DF58, Kodak) was attached to the film holder on the fixing device to photograph X-ray by a dental X-ray photographing apparatus (Super Max 70, type HD-1, Morita Seisakusho).
That is, an X-ray film was measured under a stereoscopic microscope (objective×1, eyepiece×10), an OHP sheet was put on the X-ray film, and line a, line b and line c were marked on the OHP sheet using a ceramic knife, thereby obtaining respective two points b and b′ and c and c′ on line b and line c. Distances between the b-b′ and c-c′ were respectively defined as the distances from the reference points (b and c points) to the alveolar bone crest. The length of alveolar bone loss was expressed by averaging values obtained by subtracting the sum of b-b′ and c-c′ distances in each individual at the time of each week from the sum of b-b′ and c-c′ distances at the time of ligation.
Measurement of the depth of periodontal pockets was carried out by a four point measuring method in accordance with J. Clin. Periodontol., 4, 173-190 (1997)).
Regarding the length of gingival recession, the distance from the reference point on the tooth crown prepared at the time of ligation to the gingival margin was measured on two regions, the buccal and lingual side, of P4 at the time of each week in each individual, and expressed as the average value.
Attachment level is an index for measuring position of the bottom of gingival sulcus (pocket bottom), and was expressed as the distance from the pocket bottom to the reference point on the tooth crown. That is, a value of the depth of pocket plus the length of gingival recession was used as the attachment level.
Regions of inflammation and degree of the symptoms of gingiva were evaluated in accordance with J. Periodontol., 38, 602-610 (1967)).

[12] = system: experimental periodontitis (canine periodontitis model); assay: High dose topical administration study in canine periodontitis model (Comparative Example 1): alveolar bone loss and clinical scores; type: in vivo, beagle dog; conditions: 50 and 150 μg/site groups vs control, 3 topical injections
Procedure: as §1

[13] = system: rat molar experimental tooth movement models; conditions: cited from earlier work

NCCCC(O)(P(=O)(O)O)P(=O)(O)O [alendronate]
alveolar bone destruction [1]: inhibited alveolar bone destruction | alveolar bone destruction [2]: inhibited alveolar bone destruction

O.O=P([O-])([O-])C(NC1CCCCCC1)P(=O)(O)O.[Na+].[Na+] [incadronate, disodium cycloheptylaminomethylenediphosphonate monohydrate]
effect on tooth relapse ([3]; 10 μg/50 μl/kg intra-gingival (200 μg/ml)): no effect | effect on tooth relapse ([3]; 100 μg/50 μl/kg intra-gingival (2,000 μg/ml)): good tooth relapse inhibitory action | local irritation in gross observation ([3]; 10 or 100 μg/50 μl/kg intra-gingival): not observed | alveolar bone loss and attachment level [4]: alveolar bone loss inhibitory and attachment level improving actions | alveolar bone resorption inhibitory action [4]: shows an alveolar bone resorption inhibitory action dose-dependently | suitable dose [4]: 1.0 mg/kg | local irritation to the lamina propria mucosae of the administered sites ([5]; 50 μg/site group): slight mononuclear cell infiltration was also observed partly | local irritation to the lamina propria mucosae of the administered sites ([5]; 150 μg/site group, one week after the final administration, monohydrate): considerable local irritation was observed; also recorded: bleeding, fibrin precipitation, inflammatory cell infiltration, salivary gland and muscular tissue damage were observed in all cases | alveolar bone loss [6]: alveolar bone loss inhibitory action | concentration at 26 weeks [7]: ~4000 ng/g | concentration at 8 weeks after final administration ([8]; 50 μg/site group (first value)): 5670 ng/g | concentration at 8 weeks after final administration ([8]; 150 μg/site group): 4280 ng/g | intra-rib concentration as fraction of the intra-alveolar bone concentration ([9]; 5 to 15 μg/site-administered groups): 1/10 | Intra-rib drug concentration ([9]; dose 0.5 μg/site): N.D. (N.D. indicates detection limit (0.025 μg/g) or less) | Intra-rib drug concentration ([9]; dose 1.5 μg/site): N.D. (N.D. indicates detection limit (0.025 μg/g) or less) | concentration at 13 weeks after final administration ([9]; alveolar bone, 0.5 μg/site): 58 ± 8 ng/g | concentration at 13 weeks after final administration ([9]; alveolar bone, 1.5 μg/site): 174 ± 11 ng/g | concentration at 13 weeks after final administration ([9]; alveolar bone, 5 μg/site): 356 ± 70 ng/g | concentration at 13 weeks after final administration ([9]; alveolar bone, 15 μg/site): 1040 ± 313 ng/g | concentration at 13 weeks after final administration ([9]; rib (epiphyseal region), 5 μg/site): 33 ± 3 ng/g | concentration at 13 weeks after final administration ([9]; rib (epiphyseal region), 15 μg/site): 91 ± 16 ng/g | average concentration in the alveolar bone [10]: 0.6 µg/g | acceleration of pocket depth ([11]; 2 and 4 weeks after the ligation, dose of 1.5 μg/site or more): significantly inhibited | exacerbation of gingival index ([11]; after 2 weeks of the ligation, dose of 1.5 μg/site or more): significantly inhibited | reduction of attachment level ([11]; after 4 and 15 weeks of the ligation, dose of 1.5): significantly inhibited | dose at which alveolar bone loss inhibitory action was most potent ([11]; doses 0.5, 1.5, 5.0, 15 μg/site tested): 5 μg/site | reduction of attachment level ([11]; in and after 2 weeks of the ligation, dose of 5 or more): significantly inhibited | acceleration of gingival recession ([11]; in and after 4 weeks of the ligation, dose of 5 or more): significantly inhibited | aggravation of the clinical scores of periodontitis ([11]; incadronate-treated groups): inhibited | alveolar bone loss (standardized X-ray) ([11]; incadronate-treated groups 0.5-15 μg/site vs control, after ligation): inhibited | acceleration of gingival recession ([11]; only after 15 weeks of the ligation, dose of 1.5): significantly inhibited | clinical scores [12]: no significant difference | alveolar bone loss inhibitory action ([12]; monohydrate): unable to exert alveolar bone resorption inhibitory action; also recorded: no significant difference

NCCC(O)(P(=O)(O)O)P(=O)(O)O [pamidronate]
effect on experimental tooth movement ([13]; topical administration to sub-mucasa on palate-side): effective

O=P(O)(O)C(O)(Cc1cccnc1)P(=O)(O)O [risedronate]
effect on experimental tooth movement ([13]; topical administration to the sub-periosteum area adjacent to the first molar): effective
